This is an account of results in PMC12736563, “NMR Unveils Activity Mechanism of Linear Spider Venom Peptide Fragments Selected by Neural Networks Against Staphylococci Including MRSA” (Pharmaceutics, 2025).

One data set relates to E. coli, ATCC 25922. Nature of the data set: microbe, parasite or virus in culture. The class given is cell-based.
A further data set concerns E. coli, ΔtolC. Nature of the data set: microbe, parasite or virus in culture. The class given is cell-based.
In another data set the test system is E. coli, lptD. Nature of the data set: microbe, parasite or virus in culture. The class given is cell-based.
For data set [1], the system named is S. aureus ATCC 43300 (MRSA). Nature of the data set: microbe, parasite or virus in culture. The class given is cell-based, Staphylococcus aureus. Here is the method: (§1) For antimicrobial activity determination, Gram-positive strains (Staphylococcus aureus 209P, ATCC 29213, ATCC 25923, ATCC 43300 [MRSA], S. epidermidis ATCC 14990) were used. Experiments were conducted at bacterial concentrations of (0.5–1) × 10^5 cells/mL. […] Briefly, overnight cultures in Mueller-Hinton broth (MHB, HiMedia, Mumbai, Maharashtra, India) were diluted 1:100 into fresh MHB and incubated at 37 °C for 3 h. Cultures were then adjusted to ~1 × 10^5 cells/mL (by OD600) and used as an inoculate. Peptide stocks (10 mg/mL in water) were prepared in MHB to achieve a starting concentration of 200 μg/mL and subsequently diluted twofold.

For data set [2], the system named is S. aureus ATCC 29213 (MSSA). Put plainly: microbe, parasite or virus in culture. The class given is cell-based, Staphylococcus aureus. The note with it: two-fold serial dilution in MHB, ~1 × 10^5 cells/mL, starting 200 μg/mL. Here is the method: as §1
The test system of a further data set is S. aureus ATCC 25923. Put plainly: microbe, parasite or virus in culture. Particulars: ~1 × 10^5 cells/mL, starting 200 μg/mL. The class given is cell-based, Staphylococcus aureus. The procedure: as §1
Data set [3] has as its system S. epidermidis ATCC 14990. Nature of the data set: microbe, parasite or virus in culture. The class given is cell-based, Staphylococcus epidermidis. The note with it: ~1 × 10^5 cells/mL, starting 200 μg/mL. Here is the method: as §1
In the next data set the test system is S. aureus 209P. Nature of the data set: MIC, two-fold serial dilution in Mueller-Hinton broth. The class given is cell-based, Staphylococcus aureus. The note with it: conditions identical to those of Figure 2. The procedure: as §1
The mechanism was investigated using the S. aureus 209P strain.

Another data set has as its system human red blood cells. Put plainly: Hemolytic activity. The class given is cell-based. Particulars: for Hemolysis (%): fresh human capillary blood, two independent experiments; for Hemolytic activity (in words): human red blood cells, up to 100 μM. Here is the method: Hemolytic activity was assessed using fresh capillary blood from a human volunteer, as described in [28]. Each peptide’s hemolytic activity was tested in two independent experiments.

The next data set deals with S. aureus 209P cells. Put plainly: Confocal microscopy of plasma membrane permeability to BCECF and PI. The class given is cell-based, Staphylococcus aureus. The note with it: 25 µM peptide, 15 min, Mueller–Hinton broth, CLSM. The procedure:
Confocal laser scanning microscopy (CLSM) measurements were performed with an SP2 confocal inverted microscope (Leica Microsystems GmbH, Wetzlar, Germany) using the water-immersion 63×, 1.2 NA HCX PL APO objective. A typical voxel size was 0.15 × 0.15 × 0.9 μm. Excitation wavelengths were 561 nm for propidium iodide (PI) and 488 nm for 2′,7′-Bis-(2-carboxyethyl)-5-(and-6)-carboxyfluorescein (BCECF) (Sigma-Aldrich, MO, USA). Laser power was 3–10 μW the sample. Fluorescence was detected in the 500–550 and 650–700 nm ranges for BCECF and PI, respectively. S. aureus 209P cells were preincubated with acetoxymethyl ester of BCECF (10 μM) in Hank’s balanced salt solution for 30 min at 37 °C, exposed to PI (15 μM) and peptide XIII (25 μM) for 15 min in Mueller–Hinton broth, centrifuged gently in order to concentrate the cells (1600× g, 5 min, 20 °C), and examined by CLSM. Control cells were subjected to the same procedures but without addition of the peptide.

Data set [4] addresses His12 (position 12, KFAGKHL----). Nature of the data set: NMR.
[5] abbreviates: S. aureus ATCC 43300 (MRSA), two-fold serial dilution in MHB, ~1 × 10^5 cells/mL, starting 200 μg/mL, Figure 2.
The mark [6] stands for this setting: two-fold serial dilution in MHB, Figure 2.
[7] abbreviates: two-fold serial dilution in MHB, values in Figure 2.

Converted amounts (≈) assume the structure as drawn. “Also recorded” adds a separate entry of the source. Where two headings read alike, the source gives them in different places. Ends that are not written are not given here.

As to `CC1(C)S[C@@H]2[C@H](NC(=O)[C@H](N)c3ccccc3)C(=O)N2[C@H]1C(=O)O` [Ampicillin, reference compound], in the data set on E. coli, ATCC 25922 (Escherichia coli, ATCC25922, read-out: MIC), the MIC worked out at 3.12 µg/mL (≈ 8.94 µM).

With `CCn1cc(C(=O)O)c(=O)c2ccc(C)nc21` [Nalidixic acid, reference compound], the MIC against E. coli, ΔtolC (Escherichia coli) worked out at 1.56 µg/mL (≈ 6.72 µM); in the data set on E. coli, lptD (Escherichia coli) it was 1.56 µg/mL (≈ 6.72 µM).

In the case of `CN[C@H](CC(C)C)C(=O)N[C@H]1C(=O)N[C@@H](CC(N)=O)C(=O)N[C@H]2C(=O)N[C@H]3C(=O)N[C@H](C(=O)N[C@H](C(=O)O)c4cc(O)cc(O)c4-c4cc3ccc4O)[C@H](O)c3ccc(c(Cl)c3)Oc3cc2cc(c3O[C@@H]2O[C@H](CO)[C@@H](O)[C@H](O)[C@H]2O[C@H]2C[C@](C)(N)[C@H](O)[C@H](C)O2)Oc2ccc(cc2Cl)[C@H]1O` [vancomycin, reference compound], the MIC in data set [1] (Staphylococcus aureus) was 1.56 µg/mL (≈ 1.08 µM); in [2] (Staphylococcus aureus, Figure 2, read-out: MIC) it was 0.78 µg/mL (≈ 0.538 µM); in the data set on S. aureus ATCC 25923 (Staphylococcus aureus, ATCC25923, two-fold serial dilution in MHB, Figure 2, read-out: MIC), 3.12 µg/mL (≈ 2.15 µM); in [3] (Staphylococcus epidermidis, ATCC14990, two-fold serial dilution in MHB, values in Figure 2, read-out: MIC), 0.78 µg/mL (≈ 0.538 µM).

Take AIWSSAMQFFIKHLKK [III]: the MIC (in data set [1] (setting [5]); in data set [2] (Figure 2); against S. aureus ATCC 25923 (setting [6]); in [3] (setting [7])) was above 200.00 µg/mL throughout.

For the molecule FMKRLISKGKIGKEKLVAF [II], the MIC (in data set [1] (setting [5]); in data set [2] (Figure 2); in the data set on S. aureus ATCC 25923 (setting [6]); in data set [3] (setting [7])) was above 200.00 µg/mL in each case.

Turning to FWFKALKSVAKFIA-NH2 [XIII], the MIC in [1] (setting [5]) worked out at 6.25 µg/mL; in [2] (Figure 2), 3.12 µg/mL; in the data set on S. aureus ATCC 25923 (setting [6]), 6.25 µg/mL; with E. coli, ΔtolC (E. coli, ΔtolC), 50 µg/mL; in the data set with S. aureus 209P, 6.25 µg/mL; in the data set on E. coli, lptD (E. coli, lptD), 100 µg/mL. Moreover, the MIC against E. coli, ATCC 25922 came out at 50 µg/mL; in data set [3] (setting [7]), 6.25 µg/mL. For the same molecule, the “Hemolysis (%)” value in the data set on human red blood cells (25 μM peptide), in the data set with human red blood cells (50 μM peptide) and in the data set with human red blood cells (100 μM peptide) was 0% each time. Further, the “Hemolytic activity (in words)” value in the data set with human red blood cells is “minimal hemolytic activity; also recorded: lack of hemolysis”. For the same molecule, the “entry of propidium iodide (PI) into cells” value in the data set on S. aureus 209P cells is “PI penetrates into cells”. Also, the “leakage of BCECF from cells” value in the data set with S. aureus 209P cells is “is released from them”.

As for GWMKALKEHVEKLNKTGKLK [I], the MIC (in [1] (setting [5]); in data set [2] (Figure 2); in the data set with S. aureus ATCC 25923 (setting [6]); in data set [3] (setting [7])) was above 200.00 µg/mL each time.

IIWLPVLKFLASHV-NH2 [XIV]: the MIC is 12.50 µg/mL in [1] (setting [5]); 12.50 µg/mL in [2] (Figure 2); 25.00 µg/mL against S. aureus ATCC 25923 (setting [6]); above 200 µg/mL against E. coli, ΔtolC (E. coli, ΔtolC); 100 µg/mL in the data set on E. coli, lptD (E. coli, lptD); 200 µg/mL in the data set with E. coli, ATCC 25922. In [3] (setting [7]), this molecule displayed an MIC of 6.25 µg/mL. Further, the “Hemolysis (%)” value in the data set with human red blood cells (25 μM peptide) worked out at 0%; in the data set with human red blood cells (50 μM peptide), 60%; in the data set on human red blood cells (100 μM peptide) it was 100%.

For the molecule ILADLIAKLKVRAA-NH2 [V], the MIC (in data set [1] (setting [5]); in data set [2] (Figure 2); against S. aureus ATCC 25923 (setting [6]); in [3] (setting [7])) was above 200.00 µg/mL each time.

Turning to IWLSLMKFAGKHL [X], the MIC (in data set [1] (setting [5]); in [2] (Figure 2); in the data set with S. aureus ATCC 25923 (setting [6]); in [3] (setting [7])) was above 200.00 µg/mL in each case.

“IWWTAVKFFGKQL-NH2 [XV, 13-residue fragment of Lycosin 9o from Lycosa hispanica; negative control in hemolysis]”: the MIC (in [1] (setting [5]); in [2] (Figure 2); against S. aureus ATCC 25923 (setting [6]); in data set [3] (setting [7])) was above 200.00 µg/mL in each case. Moreover, the “Hemolysis (%)” value in the data set with human red blood cells (25 μM peptide), with human red blood cells (50 μM peptide) and in the data set on human red blood cells (100 μM peptide) was 0% throughout. Moreover, the “Hemolytic activity (in words)” value with human red blood cells is listed as “lack of hemolytic activity”.

For the molecule KFAGKHLAKH-NH2 [XII], the MIC (in data set [1] (setting [5]); in data set [2] (Figure 2); against S. aureus ATCC 25923 (setting [6]); in data set [3] (setting [7])) was above 200.00 µg/mL each time.

On to LMKFAGKHLAKH-NH2 [XI], for which the MIC (in [1] (setting [5]); in data set [2] (Figure 2); with S. aureus ATCC 25923 (setting [6]); in [3] (setting [7])) was above 200.00 µg/mL in each case.

For the molecule LSLMKFAGKHLAKH-NH2 [VIII], the MIC (in data set [1] (setting [5]); in data set [2] (Figure 2); against S. aureus ATCC 25923 (setting [6]); in [3] (setting [7])) was above 200.00 µg/mL in each case.

Regarding LSLMKFAGKHLAKHQL [VII], the MIC in data set [1] (setting [5]) was above 200.00 µg/mL; in data set [2] (Figure 2), above 200.00 µg/mL; in the data set with S. aureus ATCC 25923 (setting [6]) it was above 200.00 µg/mL; against E. coli, ΔtolC (E. coli, ΔtolC), above 200 µg/mL; against E. coli, lptD (E. coli, lptD), 12.5 µg/mL; in the data set with E. coli, ATCC 25922, above 200 µg/mL. Also, in [3] (setting [7]), the MIC came to 25.00 µg/mL.

As to SLMKFAGKHLAKHQLSKMG-NH2 [VI], the MIC (in [1] (setting [5]); in data set [2] (Figure 2); against S. aureus ATCC 25923 (setting [6]); in [3] (setting [7])) was above 200.00 µg/mL throughout.

The term pKa denotes the pH at which an ionisable group is half protonated. A high value points to a group that holds its proton tightly. IWLSLMKFAGKHL [Peptide IX (N-terminal 13-residue fragment of Lycosin 9i) (Lycosa hispanica)]: the pKa in data set [4] (30 °C, free peptide in aqueous solution, disordered (random coil), 1 mM) is reported as 6.02±0.05; in data set [4] (45 °C, bound to anionic LPPG micelles, structured (helix-like Ile1-Met6, α-helix Lys7-Leu13)), 7.89 ± 0.24.
